Measured values reported in BindingDB's records for doi:10.1016/j.bioorg.2015.06.006 (Hazara University, 2015).

target: Alpha-glucosidase MAL12 (Saccharomyces cerevisiae (strain ATCC 204508 / S288c), UniProt P53341); assay: Alpha-glucosidase Assay; settings: pH 6.8
Method: Total volume of 100 µL reaction mixture contained 70 µL 50 mM phosphate buffer pH 6.8, 10 µL test compound (0.5 mM in methanol) followed by the addition of 10 µL enzyme solution (0.057 units) in the buffer. The contents were mixed, pre-incubated for 10 min at 37 °C and pre-read at 400 nm. The reaction was initiated by the addition of 10 µL of 0.5 mM substrate (p-nitrophenyl glucopyranoside). After 30 min of incubation at 37 °C, absorbance of p-nitrophenol released was measured. Acarbose was used as positive control.

Alpha-glucosidase MAL12, sequence (P53341 whole entry): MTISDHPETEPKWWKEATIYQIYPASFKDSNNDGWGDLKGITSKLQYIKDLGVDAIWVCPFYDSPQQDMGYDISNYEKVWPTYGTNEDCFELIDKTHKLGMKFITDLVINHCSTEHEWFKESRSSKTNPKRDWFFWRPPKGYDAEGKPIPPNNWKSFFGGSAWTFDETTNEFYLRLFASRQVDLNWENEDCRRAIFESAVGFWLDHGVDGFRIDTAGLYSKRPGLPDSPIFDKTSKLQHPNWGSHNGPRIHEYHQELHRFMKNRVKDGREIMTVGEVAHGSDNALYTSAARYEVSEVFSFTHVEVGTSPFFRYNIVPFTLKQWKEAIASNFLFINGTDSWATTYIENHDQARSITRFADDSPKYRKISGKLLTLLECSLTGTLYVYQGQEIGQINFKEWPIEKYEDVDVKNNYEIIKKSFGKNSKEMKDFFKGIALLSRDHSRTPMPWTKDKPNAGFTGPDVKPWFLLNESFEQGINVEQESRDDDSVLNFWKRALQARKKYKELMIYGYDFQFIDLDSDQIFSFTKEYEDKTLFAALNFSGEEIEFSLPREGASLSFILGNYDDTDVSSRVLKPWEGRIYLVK

Row | Structure (SMILES) | IC50 [µM]
1 | Clc1ccc(-c2csc(N/N=C\c3cccc(/C=N/Nc4nc(-c5ccc(Cl)cc5)cs4)c3)n2)cc1 [1-((E)-(2-(4-(4-chlorophenyl)thiazol-2-yl)hydrazono)methyl)-3-((Z)-(2-(4-(4-chlorophenyl)thiazol-2-yl)hydrazono)methyl)benzene (9)] | 68.5
2 | Clc1ccc(-c2csc(N/N=C/c3ccc(/C=N/Nc4ncc(-c5ccc(Cl)cc5)s4)cc3)n2)cc1 [5-(4-chlorophenyl)-2-((E)-2-(4-((E)-(2-(4-(4-chlorophenyl)-thiazol-2-yl)hydrazono)methyl)benzylidene)hydrazinyl)thiazole (10)] | 342
3 | CC(C)(C)c1cc(/C=N/Nc2nc(-c3ccc(Cl)cc3)cs2)cc(C(C)(C)C)c1O [(E)-2,6-Di-t-butyl-4-((2-(4-(4-Chlorophenyl)thiazole-2-yl)-hydrazono)methyl)-phenol (8)] | 18.2
4 | COc1ccc(-c2csc(N/N=C/c3cc(C(C)(C)C)c(O)c(C(C)(C)C)c3)n2)cc1 [(E)-2,6-Di-tert-butyl-4-((2-(4-(4-Methoxyphenyl)thiazol-2-yl)hydrazono)-methyl)phenol (17)] | 123
5 | C/C(=N\Nc1nc(-c2ccc(Cl)cc2)cs1)c1ccc([N+](=O)[O-])cc1Br [(E)-2-(2-(1-(2-Bromo-4-nitrophenyl)ethylidene)hydrazinyl)-4-(4-chlorophenyl)thiazole (2)] | 43.3
6 | C/C(=N\Nc1nc(-c2ccc(Cl)cc2)cs1)c1ccc(N2CCCCC2)cc1 [(E)-4-(4-Chlorophenyl)-2-(2-(1-(4-(piperidin-1-yl)phenyl)-ethylidene)hydrazinyl)thiazole (4)] | 388
7 | O=[N+]([O-])c1ccccc1/C=N/Nc1nc(-c2ccc(Cl)cc2)cs1 [(E)-4-(4-Chlorophenyl)-2-(2-(2-nitrobenzylidene)hydrazinyl)-thiazole (3)] | 239
8 | O=[N+]([O-])c1cccc(/C=N/Nc2nc(-c3ccc(Cl)cc3)cs2)c1 [(E)-4-(4-Chlorophenyl)-2-(2-(3-nitrobenzylidene)hydrazinyl)-thiazole (1)] | 220
9 | COc1ccc(-c2csc(N/N=C(\C)c3cccc([N+](=O)[O-])c3)n2)cc1 [(E)-4-(4-Methoxyphenyl)-2-(2-(1-(3-nitrophenyl)-ethylidene)hydrazinyl)thiazole (12)] | 424
10 | CN(C)c1ccc(/C=N/Nc2nc(-c3ccc(Cl)cc3)cs2)cc1 [(E)-4-((2-(4-(4-Chlorophenyl)thiazol-2-yl)hydrazono)methyl)-N,N-dimethyl-aniline (5)] | 205

Next, values leading:

Row | IC50 [µM] | Structure (SMILES)
11 | 55.4 | COc1ccc(-c2csc(N/N=C\c3cccc(/C=N/Nc4nc(-c5ccc(OC)cc5)cs4)c3)n2)cc1 [1-((E)-(2-(4-(4-Methoxyphenyl)thiazol-2-yl)hydrazono)-methyl)-3-((Z)-(2-(4-(4-methoxyphenyl)thiazol-2-yl)hydrazono)-methyl)benzene (18)]
12 | 226 | COc1ccc(-c2csc(N/N=C/c3ccc(/C=N/Nc4ncc(-c5ccc(OC)cc5)s4)cc3)n2)cc1 [5-(4-methoxyphenyl)-2-((E)-2-(4-((E)-(2-(4-(4-methoxyphenyl)thiazol-2-yl)hydrazono)methyl)benzylidene)-hydrazinyl)thiazole (19)]
13 | 36.8 | Clc1ccc(-c2csc(N/N=C/c3ccc(OCc4ccccc4)cc3)n2)cc1 [(E)-2-(2-(4-(Benzyloxy)benzylidene)hydrazinyl)-4-(4-chlorophenyl)thiazole (7)]
14 | 99.2 | COc1ccc(-c2csc(N/N=C/c3ccc(OCc4ccccc4)cc3)n2)cc1 [(E)-2-(2-(4-(Benzyloxy)benzylidene)hydrazinyl)-4-(4-methoxyphenyl)thiazole (16)]
15 | 192 | COc1ccc(-c2csc(N/N=C/c3c4ccccc4cc4ccccc34)n2)cc1 [(E)-2-(2-(Anthracen-9-ylmethylene)hydrazinyl)-4-(4-methoxyphenyl)thiazole (13)]
16 | 176 | COc1ccc(-c2csc(N/N=C/c3ccc(OC)c(O)c3)n2)cc1 [(E)-2-Methoxy-5-((2-(4-(4-methoxyphenyl)thiazol-2-yl)-hydrazono)methyl)-phenol (20)]
17 | 175 | Clc1ccc(-c2csc(N/N=C/c3ccc4ccccc4c3)n2)cc1 [(E)-4-(4-Chlorophenyl)-2-(2-(naphthalene-2-yl-methylene)hydrazinyl)thiazole (6)]
18 | 194 | COc1ccc(-c2csc(N/N=C/c3ccc4ccccc4c3)n2)cc1 [(E)-4-(4-Methoxyphenyl)-2-(2-(naphthalen-2-yl-methylene)-hydrazinyl)thiazole (15)]
19 | 146 | COc1ccc(-c2csc(N/N=C/c3ccc(N(C)C)cc3)n2)cc1 [(E)-4-((2-(4-(4-Methoxyphenyl)thiazol-2-yl)hydrazono)-methyl)-N,N-dimethylaniline (14)]
20 | 46.4 | COc1ccc(-c2csc(N/N=C/c3ccc(O)c(O)c3)n2)cc1 [(E)-4-((2-(4-(4-Methoxyphenyl)thiazol-2-yl)hydrazono)-methyl)benzene-1,2-diol (21)]
21 | 176 | COc1ccc(/C=N/Nc2nc(-c3ccc(Cl)cc3)cs2)cc1O [(E)-5-((2-(4-(4-Chlorophenyl)thiazole-2-yl)hydrazono)-methyl)-2-methoxy-phenol (11)]
